Results: PMC5900554, “Fragment-Based Approach to Targeting Inosine-5′-monophosphate Dehydrogenase (IMPDH) from Mycobacterium tuberculosis” (Journal of Medicinal Chemistry, 2018)
Where two headings read alike, the source gives them in different places.

Columns and labels:
Mth IMPDH ΔCBS [1] = target: T1, Mth IMPDH ΔCBS (Mycolicibacterium thermoresistibile, UniProt G7CNL4, R236G); assay: Inhibition constants (Ki) and mode of inhibition against Mth IMPDH ΔCBS with respect to IMP and NAD+; format: biochemical, Mycobacterium thermoresistible; parameters: key to Pattern of inhibition with respect to IMP / Pattern of inhibition with respect to NAD: UC: Uncompetitive inhibition; details: for Pattern of inhibition with respect to IMP / Pattern of inhibition with respect to NAD: UC = uncompetitive; for Pattern of inhibition with respect to IMP / IMP αKi: with respect to IMP; for IMP αKi: fixed saturating NAD+ ([…]); for Pattern of inhibition with respect to NAD / NAD αKi: with respect to NAD+; for NAD αKi: constant saturating IMP (1 mM)
Description: The inhibition constant [Ki] with respect to both substrates IMP and NAD^+ was determined by assaying various concentrations of each inhibitor with five different concentrations of substrate and a fixed saturating concentration of the cosubstrate.
(§1) The initial velocities at various inhibitor concentrations were determined based on the slope in the linear part of each reaction containing the inhibitor and the uninhibited reaction. To determine the inhibition constant (Ki values), the initial rate data versus substrate concentration at different inhibitor concentrations were fit using Prism software (GraphPad) to equations for uncompetitive or mixed inhibition. For each inhibitor concentration, the reciprocal of enzyme reaction velocity versus the reciprocal of the substrate concentration was plotted in a Lineweaver–Burk plot to determine the pattern of inhibition.

full-length Mtb IMPDH = full-length Mtb IMPDH (Mycobacterium tuberculosis, UniProt P9WKI7); assay: Inhibition constants toward full-length Mtb IMPDH; format: biochemical
Description: as §1

Mth IMPDH ΔCBS [2] = target: T1, Mth IMPDH ΔCBS; format: biochemical, Mycobacterium thermoresistible; details: SAR statement in text
[3] = IMP as the substrate, read-out: Ki with IMP as the substrate
[4] = NAD as the substrate, read-out: Ki with NAD as the substrate

Oc1ccc2ccc(O)cc2c1 [Compound 11]
Pattern of inhibition with respect to IMP (Mth IMPDH ΔCBS [1]): uncompetitive and UC
IMP αKi (Mth IMPDH ΔCBS [1]): 361 ± 53 µM
Pattern of inhibition with respect to NAD (Mth IMPDH ΔCBS [1]): UC
NAD αKi (Mth IMPDH ΔCBS [1]): 310 ± 30 µM

Brc1ccc(-c2c[nH]cn2)cc1 [Compound 2]
Pattern of inhibition with respect to IMP (Mth IMPDH ΔCBS [1]): uncompetitive and UC
IMP αKi (Mth IMPDH ΔCBS [1]): 609 ± 3 µM
Pattern of inhibition with respect to NAD (Mth IMPDH ΔCBS [1]): uncompetitive and UC
NAD αKi (Mth IMPDH ΔCBS [1]): 512 ± 23 µM
Ki (full-length Mtb IMPDH; [3]): 572 ± 14 µM
Ki (full-length Mtb IMPDH; [4]): 534 ± 18 µM

CC(Oc1ccc(-c2cn(C)cn2)cc1)C(=O)Nc1nc(-c2ccc(Br)cc2)c[nH]1 (centres unmarked) [Compound 31, N-(4-(4-Bromophenyl)-1H-imidazol-2-yl)-2-(4-(1-methyl-1H-imidazol-4-yl)phenoxy)propanamide]
Pattern of inhibition with respect to IMP (Mth IMPDH ΔCBS [1]): uncompetitive
IMP αKi (Mth IMPDH ΔCBS [1]): 0.30 ± 0.02 µM
Pattern of inhibition with respect to NAD (Mth IMPDH ΔCBS [1]): uncompetitive
NAD αKi (Mth IMPDH ΔCBS [1]): 0.20 ± 0.01 µM
Ki (full-length Mtb IMPDH; [3]): 0.61 ± 0.05 µM
Ki (full-length Mtb IMPDH; [4]): 0.39 ± 0.02 µM

O=C(O)c1cc2sccc2s1 [Compound 14]
Pattern of inhibition with respect to IMP (Mth IMPDH ΔCBS [1]): Mixed
IMP αKi (Mth IMPDH ΔCBS [1]): 238 ± 6 µM
Pattern of inhibition with respect to NAD (Mth IMPDH ΔCBS [1]): UC
NAD αKi (Mth IMPDH ΔCBS [1]): 262 ± 39 µM

CC(C)NC(=O)CSc1nc(-c2ccccc2)c[nH]1 [Compound 26, N-Isopropyl-2-((4-phenyl-1H-imidazol-2-yl)thio)acetamide]
Mth IMPDH ΔCBS inhibitory activity (in words) (Mth IMPDH ΔCBS [2]): complete loss of activity

COc1ccc(OC(C)C(=O)Nc2ccc(I)cc2)cc1 (centres unmarked) [Compound 1, reference compound]
Pattern of inhibition with respect to IMP (Mth IMPDH ΔCBS [1]): uncompetitive and UC
Pattern of inhibition with respect to NAD (Mth IMPDH ΔCBS [1]): uncompetitive and UC
NAD αKi (Mth IMPDH ΔCBS [1]): 0.55 ± 0.02 µM

O=C(O)CSc1nc(-c2ccccc2)c[nH]1 [Compound 28, 2-((4-Phenyl-1H-imidazol-2-yl)thio)acetic Acid]
Mth IMPDH ΔCBS inhibitory activity (in words) (Mth IMPDH ΔCBS [2]): complete loss in activity

O=C(O)CSc1nc(-c2ccc(Br)cc2)c[nH]1 [Compound 27, 2-((4-(4-Bromophenyl)-1H-imidazol-2-yl)thio)acetic Acid]
Mth IMPDH ΔCBS inhibitory activity (in words) (Mth IMPDH ΔCBS [2]): complete loss in activity

Cc1ccc(-c2nc(C(=O)O)cs2)cc1 [Compound 16]
Pattern of inhibition with respect to IMP (Mth IMPDH ΔCBS [1]): Mixed
Pattern of inhibition with respect to NAD (Mth IMPDH ΔCBS [1]): UC
NAD αKi (Mth IMPDH ΔCBS [1]): 525 ± 64 µM

CC1(C)Cc2cccc(CO)c2O1 [Compound 19]
Pattern of inhibition with respect to IMP (Mth IMPDH ΔCBS [1]): Mixed
IMP αKi (Mth IMPDH ΔCBS [1]): 126 ± 34 µM
Pattern of inhibition with respect to NAD (Mth IMPDH ΔCBS [1]): UC
NAD αKi (Mth IMPDH ΔCBS [1]): 355 ± 47 µM

CC(=O)Nc1cc(C)ccc1O [Compound 18]
Pattern of inhibition with respect to IMP (Mth IMPDH ΔCBS [1]): uncompetitive and UC
IMP αKi (Mth IMPDH ΔCBS [1]): 554 ± 70 µM
Pattern of inhibition with respect to NAD (Mth IMPDH ΔCBS [1]): UC
NAD αKi (Mth IMPDH ΔCBS [1]): 452 ± 26 µM

CC(Oc1ccc(-c2cn(C)cn2)cc1)C(=O)Nc1ccccc1 (centres unmarked) [Compound 34, 2-(4-(1-Methyl-1H-imidazol-4-yl)phenoxy)-N-phenylpropanamide]
Mth IMPDH ΔCBS inhibitory activity (in words) (Mth IMPDH ΔCBS [2]): complete loss of activity
